According to patent publication US9404081B2, “Pyruvate kinase activators for use in therapy” (AGIOS PHARMACEUTICALS, INC., priority 2011, dated 2016):

Experiments:
Assay type in all cases: biochemical
[1] = target: PKR T384W (Homo sapiens, UniProt P30613, T384W); assay: PKR T384W Single Point Percent Activation Assay; conditions: read-out: Act. % 384W
Method: PKR T384W Single Point Percent Activation Assay
(§1) A compound described herein was diluted with DMSO and tested at 1 μM concentration. The enzyme was diluted in 1× Buffer: (100 mM KCl, 50 mM Tris 7.5, 5 mM MgCl2, 1 mM DTT, 0.03% BSA). 2 μL of compound solution was first added into wells, and then 180 μL enzyme solution was added. Assays were assembled except for ADP, and plates were stored for 60 minutes at RT. 20 μL ADP was added to start the assay and assay output was evaluated using OD340 at SpectraMax. The assay was run at room temperature.
Final concentration: PKR T384W soluble (300 ng/well), Tris pH 7.5 (50 mM), KCl (100 mM), MgCl2 (5 mM), ADP (0.08 mM), PEP (0.23 mM), NADH (180 μM), LDH (0.5 units, Sigma 59023), DTT (1 mM) and BSA (0.03%).

[2] = target: PKR wt (Homo sapiens, UniProt P30613); assay: PKR WT Single Point Percent Activation Assay
Chain of PKR wt (P30613 whole entry): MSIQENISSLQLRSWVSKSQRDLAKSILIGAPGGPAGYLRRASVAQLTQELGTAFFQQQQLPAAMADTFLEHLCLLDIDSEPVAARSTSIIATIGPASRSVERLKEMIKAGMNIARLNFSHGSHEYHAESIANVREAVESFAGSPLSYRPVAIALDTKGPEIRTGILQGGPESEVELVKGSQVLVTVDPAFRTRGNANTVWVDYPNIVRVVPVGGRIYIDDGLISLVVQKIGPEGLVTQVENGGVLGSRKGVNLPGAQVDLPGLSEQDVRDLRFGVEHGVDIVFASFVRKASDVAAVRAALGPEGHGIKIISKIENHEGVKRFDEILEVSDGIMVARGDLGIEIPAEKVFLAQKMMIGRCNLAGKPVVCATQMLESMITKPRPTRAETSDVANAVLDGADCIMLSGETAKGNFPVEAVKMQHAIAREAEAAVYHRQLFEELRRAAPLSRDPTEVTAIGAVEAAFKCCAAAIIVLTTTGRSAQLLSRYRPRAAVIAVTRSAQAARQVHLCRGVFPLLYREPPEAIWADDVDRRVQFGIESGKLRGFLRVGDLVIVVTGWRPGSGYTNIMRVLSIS
Method: PKR WT Single Point Percent Activation Assay
as §1, with “180 μL of enzyme solution” for “180 μL enzyme solution”
Final concentration: PKR wt (100 ng/well), Tris pH 7.5 (50 mM), KCl (100 mM), MgCl2 (5 mM), ADP (0.48 mM), PEP (0.15 mM), NADH (180 μM), LDH (0.5 units, Sigma 59023), DTT (1 mM) and BSA (0.03%).

[3] = target: PKR R532W (Homo sapiens, UniProt P30613, R532W); assay: PKR R532W Single Point Percent Activation Assay; conditions: for activation at 1 µM: read-out: Act, % 532W
Chain of PKR R532W (P30613 whole entry R532W): as the sequence (P30613 whole entry) above, with R532W counted along it
Method: PKR R532W Single Point Percent Activation Assay
as §1, with “180 μL of enzyme solution” for “180 μL enzyme solution”
Final concentration: PKR R532W (100 ng/well), Tris pH 7.5 (50 mM), KCl (100 mM), MgCl2 (5 mM), ADP (0.36 mM), PEP (0.1 mM), NADH (180 μM), LDH (0.5 units, Sigma 59023), DTT (1 mM) and BSA (0.03%).

[4] = target: PKR R510Q (Homo sapiens, UniProt P30613, R510Q); assay: PKR R510Q Single Point Percent Activation Assay; conditions: read-out: Act. % 510Q
Chain of PKR R510Q (P30613 whole entry R510Q): as the sequence (P30613 whole entry) above, with R510Q counted along it
Method: PKR R510Q Single Point Percent Activation Assay
as §1, with “180 μL of enzyme solution” for “180 μL enzyme solution”
Final concentration: PKR R510Q (40 ng/well), Tris pH 7.5 (50 mM), KCl (100 mM), MgCl2 (5 mM), ADP (0.2 mM), PEP (0.11 mM), NADH (180 μM), LDH (0.5 units, Sigma 59023), DTT (1 mM) and BSA (0.03%).

Chain of PKR T384W (P30613 whole entry T384W): as the sequence (P30613 whole entry) above, with T384W counted along it

Row | SMILES | activation at 1 µM [1] | activation at 1 µM [2] | activation at 1 µM [3] | activation at 1 µM [4] | Act, % 532W ([3]; % activation at 1 μM)
1 | C[C@@H]1CN(C(=O)c2ccc(NS(=O)(=O)c3cccc4cccnc34)cc2)C[C@H](C)N1C(=O)c1ccccn1 | 101 to 500% | 101 to 500% | 101 to 500% | 101 to 500% | –
2 | O=C(c1ccc(NS(=O)(=O)c2cccc3cccnc23)cc1)N1CC2CCC(C1)N2Cc1cc(F)cc(F)c1 | 101 to 500% | 101 to 500% | 1 to 100% | 101 to 500% | –
3 | C[C@H]1CN(Cc2ccc(Cl)c(F)c2)CCN1C(=O)c1ccc(NS(=O)(=O)c2cccc3cccnc23)cc1 | 1 to 100% | 101 to 500% | 101 to 500% | 101 to 500% | –
4 | C[C@@H]1CN(Cc2ccccc2)CCN1C(=O)c1ccc(NS(=O)(=O)c2cccc3cccnc23)cc1 | 101 to 500% | 101 to 500% | 101 to 500% | 101 to 500% | –
5 | C[C@H]1CN(Cc2cc(F)cc(F)c2)CCN1C(=O)c1ccc(NS(=O)(=O)c2cccc3cccnc23)cc1Cl | 1 to 100% | 1 to 100% | 101 to 500% | 101 to 500% | –
6 | C[C@@H]1CN(C(=O)OC2CCOCC2)CCN1C(=O)c1ccc(NS(=O)(=O)c2cccc3cccnc23)cc1 | 1 to 100% | 1 to 100% | 1 to 100% | 1 to 100% | –
7 | C[C@@H]1CN(C(=O)c2ccc(NS(=O)(=O)c3cccc4cccnc34)cc2)CCN1Cc1ccccc1 | 101 to 500% | 101 to 500% | 101 to 500% | 101 to 500% | –
8 | O=C(c1ccc(NS(=O)(=O)c2cccc3cccnc23)cc1)N1CCN(CC2CC2)c2ccccc21 | 101 to 500% | 101 to 500% | 101 to 500% | 1 to 100% | –
9 | C[C@@H]1CN(Cc2ccc(F)c(F)c2F)CCN1C(=O)c1ccc(NS(=O)(=O)c2cccc3cccnc23)cc1 | 101 to 500% | 1 to 100% | 1 to 100% | 101 to 500% | –
10 | C[C@@H]1CN(Cc2cc(F)cc(F)c2F)CCN1C(=O)c1ccc(NS(=O)(=O)c2cccc3cccnc23)cc1 | 1 to 100% | 1 to 100% | 101 to 500% | 1 to 100% | –
11 | C[C@H]1CN(Cc2c(F)cc(F)cc2F)CCN1C(=O)c1ccc(NS(=O)(=O)c2cccc3cccnc23)cc1 | 101 to 500% | 1 to 100% | 101 to 500% | 1 to 100% | –
12 | C[C@@H]1CN(CC2CCCCC2)CCN1C(=O)c1ccc(NS(=O)(=O)c2cccc3cccnc23)cc1 | 1 to 100% | 101 to 500% | 101 to 500% | 101 to 500% | –
13 | C[C@@H]1CN(C[C@H]2CCCO2)CCN1C(=O)c1ccc(NS(=O)(=O)c2cccc3cccnc23)cc1 | 101 to 500% | 101 to 500% | 101 to 500% | 1 to 100% | –
14 | C[C@H]1CN(CC2CCCC2)CCN1C(=O)c1ccc(NS(=O)(=O)c2cccc3cccnc23)cc1Cl | 1 to 100% | 1 to 100% | 1 to 100% | 1 to 100% | –
15 | CC[C@H]1CN(Cc2ccc(F)cc2)CCN1C(=O)c1ccc(NS(=O)(=O)c2cccc3cccnc23)cc1 | 101 to 500% | 101 to 500% | 101 to 500% | 1 to 100% | –
16 | C[C@H]1CN(Cc2ccc(F)c(F)c2F)CCN1C(=O)c1ccc(NS(=O)(=O)c2cccc3cccnc23)cc1 [drawing 66] | 1 to 100% | 1 to 100% | – | 1 to 100% | A (a % activation at 1 μM of from 1 to 100)
17 | C[C@H]1CN(C(=O)OCC2CC2)CCN1C(=O)c1ccc(NS(=O)(=O)c2cccc3cccnc23)cc1 | 101 to 500% | 101 to 500% | 101 to 500% | 1 to 100% | –
18 | CC(c1c(F)cc(F)cc1F)N1CCN(C(=O)c2ccc(NS(=O)(=O)c3cccc4cccnc34)cc2)[C@@H](C)C1 (stereo partly drawn) | 101 to 500% | 101 to 500% | 101 to 500% | 101 to 500% | –
